In US11717499B2 (priority 2011, dated 2023):
Entries after “also recorded” stand apart in the source; their conditions may differ. Read-outs that look alike come from different tables or passages of the source. Marks after values point to notes of the source that are not given here.

Columns and labels:
[1] = system: LPS-triggered PTB; conditions: for Number of pups retained / Number of pups dropped: 50 mg/kg LPS
Description: Mice were then randomly assigned to the control group or one of five treatment groups. […] Additionally, a sixth group of four animals received i.p. injections of 0.5 ml PBS in lieu of LPS at the same time points and served as sham (Table 1).
After the injection at t=10 hours, mice were continually monitored; time of delivery of the first pup and number of pups dropped over time were recorded. […] All mice were sacrificed by carbon dioxide asphyxiation. The mice were autopsied at the end of experiments to confirm pregnancy and to determine the number of pups retained in utero. Placenta and uteri were harvested and stored.

[2] = system: IL-1β; test: Immunoblot of IL-1β expression in placental tissue; format: in vivo; conditions: DMA rescued mice vs LPS-triggered PTB mice, p<0.01
Source text: (§1) The probe was thoroughly cleaned after each sample.
(§2) Chemifluorescence was detected by exposure to an autoradiography film.

[3] = system: TNF-α; test: Immunoblot of TNF-α expression in placental tissue; format: in vivo; conditions: DMA rescued mice vs LPS-triggered PTB mice, p<0.001
Source text: as §1, §2

[4] = system: IL-6; test: Immunoblot of IL-6 expression in placental tissue; format: in vivo; conditions: DMA rescued mice vs LPS-triggered PTB mice, p<0.05
Source text: as §1, §2

[5] = system: P450-dependent monooxygenase or phase II enzyme activities; conditions: rat; cited from earlier work
[6] = rats, cited from earlier work

SMILES | Number of pups retained ([1]; DMA 0.2 mg/kg) | Number of pups dropped ([1]; DMA 0.2 mg/kg, n=47 pups) | Number of pups retained ([1]; DMA 0.39 mg/kg) | Number of pups retained ([1]; DMA 0.78 mg/kg) | Number of pups retained ([1]; DMA 1.56 mg/kg) | Number of pups dropped ([1]; DMA 1.56 mg/kg, n=47 pups) | Number of pups retained ([1]; DMA 3.1 mg/kg) | Number of pups dropped ([1]; DMA 3.1 mg/kg, n=52 pups) | Prevention of PTB ([1]; highest doses of DMA, 3.1 and 1.56 mg/kg) [%] | IL-1β expression in placentas [2] | TNF-α expression in placentas [3] | IL-6 expression in placentas [4] | Induction of hepatic monooxygenases [5] | Plasma level ([6]; after 24 hours) | Plasma half life [6]
CC(=O)N(C)C [DMA, N,N-dimethylacetamide] | 35 | 12 | 41 | 69 | 47 | 0*** | 52 | 0*** | 100 | significantly reduced; also recorded: suppressed | suppressed | suppressed |  |  | 
CNC(C)=O [MMA, N-monomethylacetamide] |  |  |  |  |  |  |  |  |  |  |  |  | did not induce any hepatic monooxygenases | a significant amount of MMA was still present | about 2.2 hours
